Experimental findings from ChEMBL document CHEMBL4138063, “Discovery of Decamidine as a New and Potent PRMT1 Inhibitor” (Medchemcomm, 2017) are described below.

The structures appear in SMILES notation. Active and inactive are the calls of the source. No cut-off for these calls is given here.

In experiment [1] the target is T1, Protein arginine N-methyltransferase 5 (Homo sapiens, UniProt O14744). Description: Inhibition of PRMT5 (unknown origin) assessed as reduction in methyl transfer from [3H]-SAM to biotinylated histone H4 peptide H4-20-Biotin at 10 uM pre-incubated for 3 mins before [3H]-SAM addition and measured after 45 mins by scintillation proximity assay. Background: In a scintillation proximity assay essentially only radioactivity close to the scintillant gives light.

In experiment [2] the target is T1, Protein arginine N-methyltransferase 5. In words: Inhibition of PRMT5 (unknown origin) assessed as reduction in methyl transfer from [3H]-SAM to biotinylated histone H4 peptide H4-20-Biotin at 100 uM pre-incubated for 3 mins before [3H]-SAM addition and measured after 45 mins by scintillation proximity assay.
Experiment [3] has the same target. Description: Inhibition of PRMT5 (unknown origin) assessed as reduction in methyl transfer from [3H]-SAM to biotinylated histone H4 peptide H4-20-Biotin pre-incubated for 3 mins before [3H]-SAM addition and measured after 45 mins by scintillation proximity assay.
Experiment [4] addresses Protein arginine N-methyltransferase 1 (Homo sapiens, UniProt Q99873). In words: Inhibition of PRMT1 (unknown origin) assessed as reduction in methyl transfer from [3H]-SAM to biotinylated histone H4 peptide H4-20-Biotin at 10 uM pre-incubated for 3 mins before [3H]-SAM addition and measured after 15 mins by scintillation proximity assay.

What is called inhibition is the relative decrease from the control value, in per cent. In general, IC50 refers to the concentration at which inhibition is half-maximal.

T1 sequence (O14744 whole entry): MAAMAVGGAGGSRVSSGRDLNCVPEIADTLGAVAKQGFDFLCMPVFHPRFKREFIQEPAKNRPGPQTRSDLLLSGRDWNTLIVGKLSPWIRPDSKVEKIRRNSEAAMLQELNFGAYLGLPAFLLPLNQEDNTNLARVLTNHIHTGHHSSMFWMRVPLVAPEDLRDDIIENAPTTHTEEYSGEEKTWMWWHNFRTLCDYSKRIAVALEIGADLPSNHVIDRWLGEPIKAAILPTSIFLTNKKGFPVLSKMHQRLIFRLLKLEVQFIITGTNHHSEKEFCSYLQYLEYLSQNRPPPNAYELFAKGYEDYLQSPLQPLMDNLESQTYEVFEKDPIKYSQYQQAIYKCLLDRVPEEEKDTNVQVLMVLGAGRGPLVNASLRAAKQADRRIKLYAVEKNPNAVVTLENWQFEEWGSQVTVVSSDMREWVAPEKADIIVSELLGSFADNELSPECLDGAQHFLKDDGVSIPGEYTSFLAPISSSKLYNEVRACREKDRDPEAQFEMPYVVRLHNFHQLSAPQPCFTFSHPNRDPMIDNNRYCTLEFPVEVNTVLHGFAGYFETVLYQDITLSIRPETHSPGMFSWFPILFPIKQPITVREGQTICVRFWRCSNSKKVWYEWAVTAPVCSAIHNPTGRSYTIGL
Sequence of Protein arginine N-methyltransferase 1 (Q99873 whole entry): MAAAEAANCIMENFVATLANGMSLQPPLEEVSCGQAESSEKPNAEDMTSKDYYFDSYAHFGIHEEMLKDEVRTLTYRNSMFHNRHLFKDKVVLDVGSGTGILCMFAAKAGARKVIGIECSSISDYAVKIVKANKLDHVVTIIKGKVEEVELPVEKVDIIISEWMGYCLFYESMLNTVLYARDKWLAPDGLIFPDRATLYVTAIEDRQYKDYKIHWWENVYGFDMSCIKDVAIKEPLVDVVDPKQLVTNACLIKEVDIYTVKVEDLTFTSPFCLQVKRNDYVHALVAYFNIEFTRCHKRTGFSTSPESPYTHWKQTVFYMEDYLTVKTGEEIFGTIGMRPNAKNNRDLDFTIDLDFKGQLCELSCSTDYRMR

Consider `CC(CCCOc1ccc(C(=N)N)cc1)Oc1ccc(C(=N)N)cc1` (configuration not stated), for which the inhibition result in experiment [1] and in experiment [2] was “inactive” throughout.
Consider `N=C(N)c1ccc(OCCCOc2ccc(C(=N)N)cc2)cc1`, for which the inhibition result in experiment [1] and in experiment [2] was “inactive” in each case.
Regarding `N=C(N)c1ccc(OC/C=C/COc2ccc(C(=N)N)cc2)cc1`, the inhibition result in experiment [1] and in experiment [2] was “inactive” each time.
For the molecule `N=C(N)c1ccc(OCCCCCCOc2ccc(C(=N)N)cc2)cc1` [HEXAMIDINE], the inhibition entry in experiment [1] and in experiment [2] was “inactive” each time. In addition, the IC50 in experiment [3] was 357 µM.
As for `N=C(N)c1ccc(OCOc2ccc(C(=N)N)cc2)cc1`, the inhibition in experiment [2] came out at 50%.
As to `N=C(N)c1ccc(OCCOc2ccc(C(=N)N)cc2)cc1`, the inhibition result in experiment [1] and in experiment [2] was “inactive” in each case.
For `N=C(N)c1ccc(/C=C/c2ccc(C(=N)N)cc2)cc1` [STILBAMIDINE], the IC50 in experiment [3] was 712 µM.
Take `N=C(N)c1ccc(OCCCCOc2ccc(C(=N)N)cc2)cc1`: the inhibition entry in experiment [1] and in experiment [2] was “inactive” each time.
With `N=C(N)c1ccc(OCCCCCCCCCCOc2ccc(C(=N)N)cc2)cc1`, the IC50 in experiment [3] is 43 µM. Further, the inhibition in experiment [2] was 50%.
In the case of `N=C(N)c1ccc(-c2ccc(-c3ccc(C(=N)N)cc3)o2)cc1` [FURAMIDINE], the IC50 is 22 µM in experiment [4] and 256 µM in experiment [3]. In experiment [2], the inhibition was 50%.
Consider `N=C(N)c1ccc(Oc2ccc(C(=N)N)cc2)cc1`, for which the inhibition result in experiment [1] and in experiment [2] was “inactive” throughout.
